Calls of active or inactive are those of the source. No cut-off for these calls is given here.
How the values were obtained:
[1] = molecular target: T1, C-type lectin domain family 4 member E (Mus musculus) (UniProt Q9R0Q8); assay: Agonist activity at mouse mincle coupled with FcRgamma expressed in 2B4-NFAT-GFP reporter cells at 3 nmol/well after 16 hrs by flow cytometric analysis; format: cell-based
T1 sequence (whole entry): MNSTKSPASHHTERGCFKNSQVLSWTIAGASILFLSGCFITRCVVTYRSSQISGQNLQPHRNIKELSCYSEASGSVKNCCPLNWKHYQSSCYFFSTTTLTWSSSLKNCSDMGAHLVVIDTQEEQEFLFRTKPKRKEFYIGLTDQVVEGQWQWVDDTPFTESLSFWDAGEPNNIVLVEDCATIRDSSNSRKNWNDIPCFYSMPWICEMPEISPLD

[2] = molecular target: T2, C-type lectin domain family 4 member E (Homo sapiens) (UniProt Q9ULY5); assay: Agonist activity at human mincle coupled with FcRgamma expressed in 2B4-NFAT-GFP reporter cells at 3 nmol/well after 16 hrs by flow cytometric analysis; format: cell-based
T2 sequence (whole entry): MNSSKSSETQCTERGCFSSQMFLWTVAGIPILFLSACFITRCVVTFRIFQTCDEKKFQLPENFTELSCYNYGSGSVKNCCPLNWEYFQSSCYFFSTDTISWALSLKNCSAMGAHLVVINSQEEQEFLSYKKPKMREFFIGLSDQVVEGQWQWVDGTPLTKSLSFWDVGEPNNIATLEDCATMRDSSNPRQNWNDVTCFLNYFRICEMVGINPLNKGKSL

Activity [1]	Activity [2]	SMILES
Active		CCCCCCC(CCCCCCCCCCC(=O)OC)O[C@@H]1O[C@H](CO[C@@H]2O[C@H](CO)[C@@H](O)[C@H](O)[C@H]2O)[C@@H](O)[C@H](O)[C@H]1O (some centres undefined)
inactive	inactive	CCCCCCC(CCCCCCCCCCC(=O)OC)O[C@@H]1O[C@H](CO)[C@@H](O)[C@H](O)[C@@H]1O (some centres undefined)
Active	Active	CCCCCCC(CCCCCCCCCCC(=O)OC)O[C@@H]1O[C@H](CO)[C@@H](O)[C@H](O)[C@@H]1O[C@@H]1O[C@H](CO)[C@@H](O)[C@H](O)[C@@H]1O (some centres undefined)
inactive	inactive	CCCCCCC(CCCCCCCCCCC(=O)OC)O[C@@H]1O[C@H](CO[C@H]2O[C@H](CO)[C@@H](O)[C@H](O)[C@H]2O)[C@@H](O)[C@H](O)[C@H]1O (some centres undefined)
inactive	inactive	CCCCCCC(CCCCCCCCCCC(=O)OC)O[C@@H]1O[C@H](CO)[C@@H](O[C@H]2O[C@H](CO)[C@@H](O)[C@H](O)[C@H]2O)[C@H](O)[C@H]1O (some centres undefined)
inactive	inactive	CCCCCCC(CCCCCCCCCCC(=O)OC)O[C@H]1O[C@H](CO)[C@@H](O)[C@H](O)[C@@H]1O (some centres undefined)
Active	Active	CCCCCCC(CCCCCCCCCCC(=O)OC)O[C@H]1O[C@H](CO)[C@@H](O)[C@H](O)[C@@H]1O[C@H]1O[C@H](CO)[C@@H](O)[C@H](O)[C@@H]1O (some centres undefined)
inactive	inactive	CCCCCCC(CCCCCCCCCCC(=O)OC)O[C@@H]1O[C@H](CO)[C@@H](O[C@@H]2O[C@H](CO)[C@@H](O)[C@H](O)[C@H]2O)[C@H](O)[C@H]1O (some centres undefined)
inactive	inactive	CCCCCCC(CCCCCCCCCCC(=O)OC)O[C@H]1O[C@H](CO)[C@@H](O)[C@H](O)[C@H]1O (some centres undefined)
Active	Active	CCCCCCC(CCCCCCCCCCC(=O)OC)O[C@@H]1O[C@H](CO)[C@@H](O)[C@H](O)[C@@H]1O[C@H]1O[C@H](CO)[C@@H](O)[C@H](O)[C@@H]1O (some centres undefined)
Active	Active	CCCCCCC(CCCCCCCCCCC(=O)OC)O[C@H]1O[C@H](CO)[C@@H](O)[C@H](O)[C@@H]1O[C@@H]1O[C@H](CO)[C@@H](O)[C@H](O)[C@@H]1O (some centres undefined)
inactive	inactive	CCCCCCC(CCCCCCCCCCC(=O)OC)O[C@@H]1O[C@H](CO)[C@@H](O)[C@H](O)[C@H]1O (some centres undefined)
inactive	inactive	CCCCCCC(CCCCCCCCCCC(=O)OC)O[C@H]1O[C@H](CO)[C@H](O)[C@H](O)[C@H]1O (some centres undefined)
inactive	inactive	CCCCCCC(CCCCCCCCCCC(=O)OC)O[C@@H]1O[C@H](CO[C@H]2O[C@H](CO)[C@H](O)[C@H](O)[C@H]2O)[C@@H](O)[C@H](O)[C@H]1O (some centres undefined)
inactive	inactive	CCCCCCC(CCCCCCCCCCC(=O)OC)O[C@@H]1O[C@H](CO)[C@H](O)[C@H](O)[C@H]1O (some centres undefined)

From ChEMBL document CHEMBL4382288, “Synthesis of 12-O-Mono- and Diglycosyl-oxystearates, a New Class of Agonists for the C-type Lectin Receptor Mincle” (ACS Med Chem Lett, 2019)
